Assay results as given in paper PMC12775823, “Glucosylceramide regulates depression through activating peroxisome proliferator-activated receptor gamma in dorsal striatum” (Theranostics, 2026).

How the values were obtained:
PPARγ [1] = test system: T1, PPARγ; assay: PPARγ mRNA, protein and transcriptional activity in dorsal striatum of CRS-induced mice; assay type: in vivo; settings: intra-dorsal striatum pioglitazone, GlcCer or combination
T1 construct: from tissue; host or cells: mouse dorsal striatum
From the text: Dorsal striatal tissues were processed in accordance with the RNA isolation kit's instructions (RC102/RC112; Vazyme Biotech Co.,Ltd), mRNA was reverse transcribed using HiScript® III All-in-one RT SuperMix (Vazyme Biotech Co.,Ltd), and cDNA was amplified using SYBR Green (Vazyme Biotech Co.,Ltd). The 2^-ΔΔCt method was used to analyze gene expression, and the relative level of the target gene was normalized to Gapdh. The primer sequences can be found in Supplemental materials Table S1.
Brain tissues were cut into small pieces and then centrifuged at 13,000 g for 15 min at 4 °C. Supernatants were collected, and proteins concentrations were determined by BCA assay. Samples were denatured at 95 °C for 5 min and subsequently stored at -80 °C for further use. Protein samples were loaded onto 10% SDS-PAGE and transferred on PVDF membranes. After being blocked with 5% nonfat dry milk in Tris-buffered saline with 0.1% Tween-20 for 1.5 h, the PVDF membranes were incubated with corresponding primary antibodies overnight at 4 °C. Membranes were then incubated with HRP-conjugated secondary antibodies for 1 h at room temperature and measured with chemiluminescence imaging system (ChemiScope; Clinx, China).
Nuclear extracts were prepared from N2a cells using a nuclear extraction kit according to the manufacturer protocol. The binding reaction between PPARγ and PPRE was carried out at 4°C for 16 h using 3 μg of nuclear extracts. The binding activity between PPARγ and PPRE was indicated by the change of optical density (OD) at 405 nm, and an enzyme reaction was measured by HRP-conjugated antibody in complex of PPRE/ PPARγ/antibody.

D2-Pparg^f/f mice = assay: Behavioral tests in D2-Pparg f/f mice after intra-dorsal striatal microinfusion; assay type: in vivo; settings: microinfusion of GlcCer
Protocol: For intracranial injection, mice were surgically implanted with sterilized guide cannulae in dorsal striatum. Intra-dorsal striatal injection of PDMP (100 μM, 1 μL/injection), pioglitazone (100 μM, 1 μL/injection), UNC (10 μM, 1 μL/injection) was performed 30 min before behavioral test. Mice were intraperitoneally injected with CNO (1 mg/kg/d) before behavioral test.
(§1) Elevated plus maze test (EPMT).
(§2) Light-dark Transition test (LDT).
(§3) Sucrose preference test (SPT).
(§4) Forced swimming test (FST).

PPARγ-LBD = test system: T2, PPARγ-LBD; assay: Bio-layer interferometry, PPARγ LBD; assay type: binding, human; settings: biolayer interferometry, Figure S7D, E
T2 construct: human PPARγ-LBD (residues 223-505); 6xHis; made in house; host or cells: E. coli BL21 (DE3)
Protocol: The bio-layer interferometry assay was performed at 30 °C on the Octet RED96 System (ForteBio, USA) with PBS as the running buffer. Purified PPARγ-LBD were biotinylated using the EZ-Link Sulfo-NHS-LC-Biotinylation Kit (Thermo Fisher Scientific, USA) according to the manufacturer's instructions. The biotinylated PPARγ was then immobilized onto SSA Biosensors (ForteBio, USA), pre-equilibrated in the running buffer. The biosensors were incubated with various concentrations of the GlcCer or pioglitazone, followed by dissociation. The data were analyzed and the binding parameters were determined using the software supplied by the manufacturer.

PPARγ [2] = assay: PPRE-luciferase (dual-luciferase) activity assay in N2a cells; assay type: cell-based; settings: N2a cells transfected with wild-type Pparg
Protocol: N2a cells were seeded into 24-well plates and cultured for 24 hours before transfection. A DNA mixture containing the PPRE-luciferase reporter plasmid (0.5 μg), PPARγ/ PPARγ mutation plasmid (0.5 μg) and an internal control plasmid pRL-SV-40 (25 ng) was transfected using lipofectamine 3000 transfection reagent (L3000001, Invitrogen, USA) according to the manufacturer's recommendations. After transfection, the cells were incubated for an additional 48 h.

aged mice = settings: oral administration, ref [35]; cited from earlier work
PPARγ target genes = assay: qRT-PCR of PPARγ target genes in PPARγ-overexpressing N2a cells; assay type: cell-based; settings: 0.1, 1 and 10 μM
CRS-induced mice = assay: Behavioral tests (OFT, EPMT, LDT, SPT, FST) in chronic restraint stress mice, intra-dorsal striatal infusion; assay type: in vivo
Protocol: For intracranial injection, mice were surgically implanted with sterilized guide cannulae in dorsal striatum. […] Mice were intraperitoneally injected with CNO (1 mg/kg/d) before behavioral test.
Chronic restraint stress (CRS). For the CRS protocol, male C57BL/6J mice (8-10 weeks old) were obtained from Charles River Laboratories (Beijing, China). Mice were individually placed into well-ventilated 50 mL conical restraint tube (suitable for mice weighing 20-25 g) with multiple holes for 4 h daily between 10:00 AM and 2:00 PM to minimize circadian rhythm variations. The restraint stress procedure was conducted for 14 consecutive days. Then, all behavioral test were performed between 10:00 AM and 18:00 PM.
as §1, §2, §3, §4

[3] = CRS mice, pioglitazone 1 μM, GlcCer 200 μM, 1 μL/side, or combination

Glucosylceramide [GlcCer]
PPARγ activity in the dorsal striatum (PPARγ [1]): significantly enhanced
PPARγ mRNA or protein expression (PPARγ [1]): neither pioglitazone, GlcCer, nor their combination altered
depression-like behaviors (D2-Pparg^f/f mice): failed to alleviate
binding affinity for the LBD (BLI) (PPARγ-LBD): minimal binding affinity
PPARγ activity (dual-luciferase) (PPARγ [2]): increased
neuroinflammation and memory deficits (aged mice): alleviate
expression of Adipoq and Leptin (PPARγ target genes): robustly upregulated
expression of adipogenesis-related genes (Srebp-1c, Adrp, Fabp4, Fasn, Cd36) (PPARγ target genes): little or no effect
time spent in the center area (OFT) (CRS-induced mice; CRS mice vs vehicle, pioglitazone 1 μM, GlcCer 200 μM, 1 μL/side, or combination): significant increase
stress-induced depression-like behaviors (overall) (CRS-induced mice; CRS mice, administration of GlcCer, pioglitazone or combined): reverses
immobility duration in the FST (CRS-induced mice; [3]): decreased
sucrose preference in the SPT (CRS-induced mice; [3]): increased
